The text below walks through data of article PMC4721923 (PLoS ONE, 2015).

By IC50 is commonly meant the midpoint of a concentration-inhibition curve. The Cmax is the peak of the concentration-time curve.

One data set relates to Jurkat cells. Details: method as in Hiraoka et al. 50. Conditions: ref Hiraoka et al. 50; cited from earlier work.
The conditions of data set [1]: plasma, intravenous administration, cited from earlier work.
For another data set, the system named is myeloma cells. Details: method as in PMID 17653574, PMID 23380051. Conditions: cited from earlier work.
The subject of data set [2] is p53 in various tumor cell types. Details: method as in PMID 17653574. The conditions noted are these: cited from earlier work.
Another data set has as its target T1, OCT1 (Homo sapiens, UniProt O15245).
T1 construct: containing the full length SLC22A1 cDNA (NM_003057) encoding the human OCT1 protein; expressed in transfected cells
T1 sequence (O15245 1-554): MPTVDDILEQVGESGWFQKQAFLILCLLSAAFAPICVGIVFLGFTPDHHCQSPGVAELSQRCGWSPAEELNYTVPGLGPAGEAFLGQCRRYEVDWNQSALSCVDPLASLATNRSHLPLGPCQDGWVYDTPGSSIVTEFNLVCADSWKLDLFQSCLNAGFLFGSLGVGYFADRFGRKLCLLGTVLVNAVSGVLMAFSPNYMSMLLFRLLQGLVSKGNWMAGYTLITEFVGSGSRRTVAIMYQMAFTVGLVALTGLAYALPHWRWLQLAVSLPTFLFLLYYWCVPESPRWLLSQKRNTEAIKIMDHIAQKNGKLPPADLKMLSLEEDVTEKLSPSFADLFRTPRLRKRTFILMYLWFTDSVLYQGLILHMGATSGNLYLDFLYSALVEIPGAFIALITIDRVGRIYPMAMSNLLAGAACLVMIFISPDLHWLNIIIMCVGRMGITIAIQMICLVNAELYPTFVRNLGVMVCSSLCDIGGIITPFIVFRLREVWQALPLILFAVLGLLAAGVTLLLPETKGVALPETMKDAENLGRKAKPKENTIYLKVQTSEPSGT
Kind of data set: Confocal laser scanning microscopy of ASP+ uptake, HEK-OCT1. In kind it is cell-based. Conditions: compound 5 15 μM; TPA 200 μM; ASP+ 1 μM. The method, then: (§1) HEK-Co, HEK-OCT1 and HEK-OCT3 cells were seeded into 8-well μ-Slides (Ibidi, Munich, Germany) (2 · 10^4 cells/well) and allowed to attach for 48 hours. Prior to the staining procedure, the medium was replaced by PBS and the DNA probe Draq5 (5 μM) (Biostatus, Shepshed, UK) was added to each well. […] Subsequently, ASP^+ was added to reach a concentration of 1 μM, and the cells were incubated for 5 minutes in the dark. Imaging was performed with an Axiovert 200 M confocal microscope coupled to a Zeiss LSM 510 scanning device (Carl Zeiss, Oberkochen, Germany) using a Plan-Apochromat 63x/1.40 oil immersion objective. Draq5 was excited at 633 nm and fluorescence was detected using a 650 nm long-pass filter, ASP^+ was excited at 488 nm and detected using a 565/35 nm band-pass filter.

Another data set concerns the target T2, OCT3 (Homo sapiens, UniProt O75751).
T2 construct: expressed in transfected cells; host or cells: HEK293 (HEK-OCT3)
T2 sequence (O75751 1-556): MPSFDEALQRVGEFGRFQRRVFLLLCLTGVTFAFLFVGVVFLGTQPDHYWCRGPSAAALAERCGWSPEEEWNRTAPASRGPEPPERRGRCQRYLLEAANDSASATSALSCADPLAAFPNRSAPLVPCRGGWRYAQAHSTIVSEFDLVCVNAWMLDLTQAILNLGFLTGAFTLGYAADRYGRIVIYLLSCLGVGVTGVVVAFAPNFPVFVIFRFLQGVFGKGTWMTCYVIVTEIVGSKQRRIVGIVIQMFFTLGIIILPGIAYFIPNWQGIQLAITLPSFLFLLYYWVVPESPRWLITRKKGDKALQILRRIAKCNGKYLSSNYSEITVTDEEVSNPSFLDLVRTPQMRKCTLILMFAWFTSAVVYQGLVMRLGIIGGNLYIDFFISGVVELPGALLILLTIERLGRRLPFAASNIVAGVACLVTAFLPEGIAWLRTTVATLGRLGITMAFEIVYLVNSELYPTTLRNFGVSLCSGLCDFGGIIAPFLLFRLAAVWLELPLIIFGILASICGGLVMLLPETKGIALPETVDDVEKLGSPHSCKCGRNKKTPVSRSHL
The experiment in a line: Confocal laser scanning microscopy of ASP+ uptake, HEK-OCT3. Conditions: compound 5 15 μM; TPA 200 μM; ASP+ 1 μM. The class given is cell-based. The method, then: as §1

Structures are written as SMILES. Read-outs that look alike come from different tables or passages of the source.

As to `Cn1c(CCCC(=O)O)nc2cc(N(CCCl)CCCl)ccc21` [Compound 1, bendamustine, reference compound], the concentration for half-maximal inhibition (IC50) was approximately 50 µM in the data set on Jurkat cells and approximately 100 µM in the data set with myeloma cells. Also, the maximum concentration (Cmax) in data set [1] (converted, ref 51) was approximately 17 µM; in data set [1] (converted, ref 52) it was approximately 31 µM; in data set [1] (ref 51) it was 6000 ng/mL; in data set [1] (ref 52), 11000 ng/mL. For the same molecule, the “concentration required for significant induction of p53 expression” value in data set [2] was not below 80 µM.

On to `Cn1c(CCCC(=O)OCCN2CCCC2)nc2cc(N(CCCl)CCCl)ccc21` [Compound 5], for which the “effect on OCT1 activity (ASP+ uptake, imaging)” value on OCT1 was “inhibited”. Also, the “effect on OCT3 activity (ASP+ uptake, imaging)” value at OCT3 was “inhibited”.
